Measured values taken from the supplement of paper PMC10307832.

Columns and labels:
Assay in all cases: relative viability (nuclei count vs DMSO), 5 days (fraction); higher = more cells survive
RAF265 + Olaparib = compound: Cn1c(Nc2ccc(C(F)(F)F)cc2)nc2cc(Oc3ccnc(-c4ncc(C(F)(F)F)[nH]4)c3)ccc21 [RAF265] + O=C(c1cc(Cc2n[nH]c(=O)c3ccccc23)ccc1F)N1CCN(C(=O)C2CC2)CC1 [Olaparib] (partner 8 µM)
Method in brief: (§1)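 Medians of duplicate plates are given as relative viability. That measure is the nuclei count in treated wells divided by the count in vehicle wells. Counts were taken on 4× images of lung cancer cell lines in 1536-well plates, 5 days after pin-tool dosing the day after seeding with one drug alone or a fixed anchor-drug dose plus five library-drug doses (not always all listed) in √10 steps.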

IPA-3 + Trametinib = compound: C1=CC=C2C(=C1)C=CC(=C2SSC3=C(C=CC4=CC=CC=C43)O)O [IPA-3] + CC(=O)Nc1cccc(-n2c(=O)n(C3CC3)c(=O)c3c(Nc4ccc(I)cc4F)n(C)c(=O)c(C)c32)c1 [Trametinib] (partner 0.02 µM)
Method in brief: as §1

Doramapimod + Trametinib = compound: Cc1ccc(-n2nc(C(C)(C)C)cc2NC(=O)Nc2ccc(OCCN3CCOCC3)c3ccccc23)cc1 [Doramapimod] + CC(=O)Nc1cccc(-n2c(=O)n(C3CC3)c(=O)c3c(Nc4ccc(I)cc4F)n(C)c(=O)c(C)c32)c1 [Trametinib] (partner 0.02 µM)
Method in brief: as §1

RAF265 + AZD7762 = compound: Cn1c(Nc2ccc(C(F)(F)F)cc2)nc2cc(Oc3ccnc(-c4ncc(C(F)(F)F)[nH]4)c3)ccc21 [RAF265] + NC(=O)Nc1cc(-c2cccc(F)c2)sc1C(=O)N[C@H]1CCCNC1 [AZD7762] (partner 0.2 µM)
Method in brief: as §1

Cell Line	relative viability (RAF265 + Olaparib; first compound 0.01 µM)	relative viability (RAF265 + Olaparib; first compound 0.03162 µM)	relative viability (RAF265 + Olaparib; first compound 0.1 µM)	relative viability (RAF265 + Olaparib; first compound 0.3162 µM)	relative viability (RAF265 + Olaparib; first compound 1 µM)	relative viability (IPA-3 + Trametinib; first compound 0.2 µM)	relative viability (IPA-3 + Trametinib; first compound 0.6325 µM)	relative viability (IPA-3 + Trametinib; first compound 2 µM)	relative viability (IPA-3 + Trametinib; first compound 6.325 µM)	relative viability (IPA-3 + Trametinib; first compound 20 µM)	relative viability (Doramapimod + Trametinib; first compound 0.02 µM)	relative viability (Doramapimod + Trametinib; first compound 0.06325 µM)	relative viability (Doramapimod + Trametinib; first compound 0.2 µM)	relative viability (Doramapimod + Trametinib; first compound 0.6325 µM)	relative viability (Doramapimod + Trametinib; first compound 2 µM)	relative viability (RAF265 + AZD7762; first compound 0.01 µM)	relative viability (RAF265 + AZD7762; first compound 0.03162 µM)	relative viability (RAF265 + AZD7762; first compound 0.1 µM)	relative viability (RAF265 + AZD7762; first compound 0.3162 µM)	relative viability (RAF265 + AZD7762; first compound 1 µM)
NCI-H522	0.791	0.695	0.737	0.728	0.57	0.828	0.792	0.822	0.875	0.711	0.717	0.703	0.799	0.727	0.633	0.801	0.872	0.887	0.985	0.897
NCI-H596	0.825	0.765	0.711	0.727	0.535	0.842	0.756	0.861	0.801	0.818	0.802	0.845	0.915	0.852	0.806	1.29	1.08	1.03	0.877	0.548
NCI-H647	0.422	0.494	0.357	0.399	0.306	0.69	0.445	0.558	0.284	0.0977	0.468	0.445	0.481	0.6	0.523	0.578	0.452	0.404	0.332	0.262
NCI-H650	0.384	0.383	0.376	0.324	0.174	1.11	0.973	0.888	1.1	1.32	0.963	0.977	0.988	1.05	0.978	0.969	0.966	0.996	0.551	0.748
NCI-H727	0.701	0.685	0.708	0.593	0.547	0.373	0.409	0.402	0.344	0.417	0.389	0.395	0.406	0.4	0.32	0.471	0.67	0.576	0.494	0.606
NCI-H838	0.829	0.725	0.752	0.694	0.594	0.8	0.519	0.352	0.478	0.517	0.493	0.549	0.506	0.56	0.411	0.865	0.953	0.964	1.03	0.841
NCI-H1355	0.814	0.732	0.694	0.608	0.31	0.462	0.476	0.428	0.423	0.443	0.456	0.393	0.376	0.43	0.408	0.816	0.668	0.772	0.68	0.515
NCI-H1395	0.478	0.431	0.434	0.49	0.46	1.02	1.03	1.04	1.05	1.13	0.999	0.967	1.05	1.08	0.946	0.403	0.382	0.422	0.419	0.393
